One substance from patent US20210353784A1, “DETECTING AND TREATING CANCERS USING CELL PENETRANT MTP53-OLIGOMERIZATION-DOMAIN PEPTIDE” (priority 2020, published 2021) can be followed below.

One test deals with MDA-MB-468.shp53 cells. The experiment in a line: Cy5p53Tet uptake in MDA-MB-468 shp53 cells with or without mtp53 depletion (live cell imaging). The format is cell-based, Human. The note with it: 500 nM.
A further test has as its target T1, mtp53 (Homo sapiens, UniProt P04637, R273H).
T1 construct: endogenous in cells; host or cells: MDA-MB-468
The experiment in a line: Glutaraldehyde cross-link assay in MDA-MB-468 cell lysates. The format is binding. The note with it: in the presence of glutaraldehyde; cells treated 1.5 μM, 4 h; Cy5 channel. The source says:
FIG. 4D illustrates Cy5p53Tet treated with glutaraldehyde without MDA-MB-468 cell lysate.
Wtp53 can form a tetramer, and its oligomerization regulates its transcriptional activity. Tetramerization is important for both wtp53 and mtp53, as both are preferentially degraded by MDM2 when present as dimers rather than tetramers. The oligomerization states of mtp53 were examined and the interactions were investigated by Cy5p53Tet and mtp53 using glutaraldehyde (GA) cross-linking assays (FIG. 4A to FIG. 4D). MDA-MB-468 cells were treated with vehicle or 1.5 μM of Cy5p53Tet for 4 h. Whole-cell lysates were cross-linked with glutaraldehyde concentrations of 0, 0.0025, or 0.005%, and the samples were analyzed by Western blot to detect p53 oligomerization forms (FIG. 4A). In cells without glutaraldehyde, monomers of mtp53 were detected; at 0.0025% glutaraldehyde, monomers, dimers, and tetramers were visible; and at 0.005% glutaraldehyde, the predominant form was tetramers. The presence of Cy5p53Tet-containing mtp53 polypeptides was evaluated using the Cy5 channel (FIG. 4B). Cy5p53Tet was detected at a low molecular weight: <12 kDa in the absence of glutaraldehyde (FIG. 4B, lane 4). […] As a control, the glutaraldehyde cross-linking of Cy5p53Tet was examined without mtp53 and found no such signal (FIG. 4D). […]

Test [1] concerns p53, p73 and PARP1 protein levels in WHIM6 and WHIM25 tumors. Nature of the test: Western blot of p53, p73 and PARP1 protein levels in PDX tumors after Cy5p53Tet injection. The class given is in vivo, NSG mice. The method, then:
25 μg of proteins were run on 12% polyacrylamide gel and the Cy5p53Tet peptide accumulated in tumors was scanned at Cy5 channel and quantified. The intensity of Cy5p53Tet peptide was analyzed by ImageJ. p53 and MDM2 protein levels from the WHIM6 and WHIM25 tumors post-injection with Cy5p53Tet peptide at 1 hr, 2 hr and 3 hr were determined by Western blot analysis. 25 ug of proteins were load on 12% SDS-PAGE gel.
FIG. 5C is a Western blot analysis showing p53, p63 and p73 protein levels from the WHIM6 and WHIM25 tumors 2 hr post injection with Cy5p53Tet peptide. 75 ug of proteins were load on 10% SDS-PAGE gel (left panel). p53, PARP1 and p73 protein levels from the WHIM6 and WHIM25 tumors 1 hr, 2 hr and 3 hr post injection with Cy5p53Tet peptide were determined by Western blot analysis (right panel). 50 ug of proteins were load on 10% SDS-PAGE gel.
PDX models have been used in translational cancer research to validate the mechanisms that link specific biomarkers to treatment efficacy that could make clinical decisions. The coexpression of mtp53 and PARP1 proteins can be biomarkers for companion diagnostics using PDX models with mtp53. […] Uptake of the Cy5p53Tet peptide in WHIM6 and WHIM25 tumors was assessed on an in vivo epifluorecent imaging system (IVIS). The Cy5p53Tet peptide was detected in both TNBC PDX tumors; however, there was a higher Cy5 fluorescence signal in the tumor site of WHIM6 compared to tumor site of WHIM25 (FIG. 5A, represent picture of 2 hr post injection). […] Samples were run on 12% polyacrylamide gel and the Cy5p53Tet peptide accumulated in tumors was scanned at Cy5 channel and quantified. […]
Given the high degree of structural similarity of the tetramerization domain shared by the p53 family members, p63, and p73, the Cy5p53Tet peptide is believed to bind to TD of p63 or p73 and cause the Cy5p53Tet peptide accumulation in WHIM6 tumors. […] A higher level of p63 was detected in WHIM6 than in WHIM25 tumors (FIG. 5C left panel, compare lane 1 to 2). p73 protein levels were very low in both WHIM6 and WHIM25 tumors. […]
(Immunoblotting shows a protein as a band on a membrane.)

With “H-CysCy5-RKKRRQRRGEYFTLQIRGRERFEMFRELNEALELK-OH (N-terminal Cy5; Synthetic peptide based on p53 protein) [Cy5p53Tet]”, the “reduction of the Cy5p53Tet signal upon mtp53 depletion (relative ROI intensity)” value in the test on MDA-MB-468.shp53 cells (30 min) is given as 61%; in the test on MDA-MB-468.shp53 cells (2 h) it was 63%; in the test on MDA-MB-468.shp53 cells (4 h), 67%. In addition, the “difference of Cy5p53Tet signal between knockdown and control cells” value in the test on MDA-MB-468.shp53 cells (24 h) is “no statistically significant difference”. Also, the “molecular weight at which Cy5p53Tet was observed” value with mtp53 is reported as greater than 225 kDa. Besides, the “mtp53 and wtp53 protein levels upon treatment” value in test [1] (WHIM25 and WHIM6 tumors) is listed as “not affected”. Further, the “PARP1 protein levels in response to the peptide” value in test [1] (mtp53 WHIM25 tumor samples) is “deceased”. Moreover, the “p73 protein levels in response to the peptide” value in test [1] (mtp53 WHIM25 tumor samples) is “increased”.
